The values below come from article PMC10624687 (Nature Communications, 2023).

The target in assay [1] is T1, HsClpP (mitochondrial caseinolytic protease P) (Homo sapiens, UniProt Q16740). Kind of assay: X-ray crystal structure at […] Å; DSF (ΔTm […] °C); EC50 from FITC-casein FI protease assay; CETSA. The format is biochemical. Set-up: gene CLPP; HsClpPΔ56 (N-terminus 56 amino acids truncated).
Assay [2] deals with T2, HsClpP (mitochondrial caseinolytic protease P) (Homo sapiens, UniProt Q16740, Y118A).
T2 construct: gene CLPP
The assay can be described thus: PAGE-based α-casein degradation assay; NanoDSF. The format is biochemical. (In general: DSF heats the sample and reads unfolding from a dye or from intrinsic fluorescence.)

Assay [3] addresses T3, HsClpP (mitochondrial caseinolytic protease P) (Homo sapiens, UniProt Q16740, W146I).
T3 construct: gene CLPP
The assay can be described thus: biochemical.

Assay [4] has as its target SaClpP (Staphylococcus aureus ClpP) (Staphylococcus aureus, UniProt Q2G036, I91W). The assay can be described thus: PAGE-based α-casein hydrolysis activation assay; DSF. Type of assay: biochemical.
The target of assay [5] is T1, HsClpP (mitochondrial caseinolytic protease P). Kind of assay: biochemical. Set-up: gene CLPP.

T3 sequence (Q16740 57-277 W146I): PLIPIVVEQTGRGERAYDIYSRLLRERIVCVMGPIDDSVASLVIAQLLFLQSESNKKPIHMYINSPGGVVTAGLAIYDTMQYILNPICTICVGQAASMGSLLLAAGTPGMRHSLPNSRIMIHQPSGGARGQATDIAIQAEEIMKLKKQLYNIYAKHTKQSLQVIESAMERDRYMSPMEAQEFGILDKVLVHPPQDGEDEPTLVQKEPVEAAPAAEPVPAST
T1 sequence (Q16740 57-277): as the sequence (Q16740 57-277 W146I) above, with I90W counted along it
T2 sequence (Q16740 57-277 Y118A): as the sequence (Q16740 57-277 W146I) above, with Y62A, I90W counted along it

As a reminder, the EC50 is the concentration that produces a half-maximal response. Higher therefore signals a need for much substance. Regarding `O=C(NCc1ccc(Br)cc1)N1CCN(Cc2cc(F)cc(F)c2)CC1` [ZK53], the EC50 in assay [1] turned out to be 220 nM; in assay [3], 11.8 µM; in assay [4], 5.4 µM. Besides, the “PAGE-based α-casein degradation assay; NanoDSF” value in assay [2] is listed as “ZK53 is still effective to promote Y118A ClpP for α-casein degradation in PAGE assay”.
Take `O=C(COc1ccc(Cl)cc1)N1CCN(Cc2cc(F)cc(F)c2)CC1` [ZK11]: the values for the EC50 in assay [5], in assay [3] and in assay [4] were 450 nM, 42.4 µM and 8.4 µM, respectively.
